From ChEMBL document CHEMBL1150448, “Dihydropyridines: a new class of angiotensin II antagonists” (Bioorg Med Chem Lett, 1994) come the findings set out here.

In experiment [1] the target is T1, Angiotensin II receptor (AT-1) type-1 (Rattus norvegicus, UniProt P29089+P25095).
T1 sequence (P29089 whole entry): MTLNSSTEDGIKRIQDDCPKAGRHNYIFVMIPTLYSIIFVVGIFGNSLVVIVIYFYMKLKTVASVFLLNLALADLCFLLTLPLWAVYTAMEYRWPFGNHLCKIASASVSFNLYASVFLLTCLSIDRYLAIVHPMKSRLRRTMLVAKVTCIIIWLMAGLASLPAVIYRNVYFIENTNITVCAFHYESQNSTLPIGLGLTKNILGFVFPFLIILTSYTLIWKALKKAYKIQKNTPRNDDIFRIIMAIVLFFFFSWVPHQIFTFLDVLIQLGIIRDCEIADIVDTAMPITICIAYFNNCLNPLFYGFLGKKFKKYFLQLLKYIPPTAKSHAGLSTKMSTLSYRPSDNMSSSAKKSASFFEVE
T1 sequence (P25095 whole entry): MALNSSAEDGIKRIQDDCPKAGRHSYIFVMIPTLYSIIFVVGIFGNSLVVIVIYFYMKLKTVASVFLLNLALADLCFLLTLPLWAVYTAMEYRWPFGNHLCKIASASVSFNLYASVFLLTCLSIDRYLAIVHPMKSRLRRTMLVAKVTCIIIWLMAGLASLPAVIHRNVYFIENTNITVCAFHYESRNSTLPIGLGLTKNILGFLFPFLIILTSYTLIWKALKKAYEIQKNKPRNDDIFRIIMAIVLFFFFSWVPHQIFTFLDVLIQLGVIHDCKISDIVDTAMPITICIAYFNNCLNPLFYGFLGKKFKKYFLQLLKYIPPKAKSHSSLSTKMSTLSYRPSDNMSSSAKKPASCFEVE
The experiment in a line: Binding affinity to Angiotensin II receptor, type 1 as displacement of 125I-Sar, Ile-AII from rat adrenal cortex membranes. Format: cell membranes, Membrane. In general terms: Loss of bound radioactivity is the signal in a displacement assay; it reports binding, not function.

A short description of experiment [2]: Compound was evaluated for inhibitory activity against PAF (platelet activating factor) induced platelet aggregation. The class given is functional.
Experiment [3] in a line: Calcium channel blocking activity (CCB). Format: functional.
Another experiment has as its system Rattus norvegicus. The experiment in a line: Dose required to produce 30 […] decrease in blood pressure that lasted for >6 hr. Format: functional.

With `CCCCc1nc2cccnc2n1CCCCCCCO/C(O)=C1\C(C(C)C)=NC(C)=C(C(=O)Nc2cccnc2)C1c1ccccc1Cl` (stereo unspecified), in experiment [1], the half-inhibitory concentration (IC50) (in general, the midpoint of a concentration-inhibition curve) is on record as 2000 nM.
The same measure, in the same setting: for `CCCCc1nc2cccnc2n1CCCCCCO/C(O)=C1\C(C(C)C)=NC(C)=C(C(=O)Nc2cccnc2)C1c1ccccc1Cl` (stereo unspecified) the value was 100 nM.
`CCCCc1nc2cccnc2n1-c1ccc(CCO/C(O)=C2\C(C)=NC(C)=C(C(=O)Nc3ccccn3)C2c2ccccc2Cl)cc1` (stereo unspecified): the values for the IC50 in experiment [2], in experiment [3] and in experiment [1] were greater than 100000 nM, 360 nM and 60 nM, respectively.
For the compound `CCCCc1nc2cccnc2n1-c1ccc(CCO/C(O)=C2\C(C(C)C)=NC(C)=C(C(=O)Nc3ccccn3)C2c2ccccc2Cl)cc1` (stereo unspecified), the results for the IC50 in experiment [2], in experiment [3] and in experiment [1] were greater than 100000 nM, greater than 100000 nM and 120 nM, respectively.
`CCCCc1nc2cccnc2n1CCCCCO/C(O)=C1\C(C(C)C)=NC(C)=C(C(=O)Nc2cccnc2)C1c1ccccc1Cl` (stereo unspecified) gave an IC50 in experiment [1] of 200 nM.
Compound `CCCCc1nc2cccnc2n1-c1ccc(CCO/C(O)=C2\C(C(C)C)=NC(C)=C(C(=O)Nc3cccnc3)C2c2ccccc2Cl)cc1` (single isomer, unassigned; (+)) had an IC50 in experiment [1] of 5300 nM.
Consider `CCCCc1nc2cccnc2n1-c1ccc(CCO/C(O)=C2\C(C(C)C)=NC(C)=C(C(=O)Nc3cccnc3)C2c2ccccc2Cl)cc1` (single isomer, unassigned; (-)), for which the Dose in the experiment with Rattus norvegicus worked out at 60 mg/kg. The IC50 in experiment [1] was 130 nM.
On to `CCCCc1nc2cccnc2n1-c1ccc(CCO/C(O)=C2\C(C(C)C)=NC(C)=C(C(=O)Nc3cccnc3)C2c2ccccc2Cl)cc1` (stereo in doubt), for which the values for the concentration for half-maximal inhibition (IC50) in experiment [2], in experiment [3] and in experiment [1] were 30 nM, greater than 100000 nM and 600 nM, respectively.
In the case of `CCCCc1nc2cccnc2n1-c1ccc(CCO/C(O)=C2\C(C(C)C)=NC(C)=C(C(=O)Nc3cccnc3)C2c2ccccc2Cl)cc1` (stereo in doubt; 12), in experiment [1], the IC50 was determined as 140 nM.
